Several values for one entry are separate records, joined by “and”; a condition that tells them apart may be missing. Equal entries are not always repeated. Entries after “also recorded” stand apart in the source; their conditions may differ. Where two headings read alike, the source gives them in different places.
How the values were obtained:
[1] = molecular target: T1, apo A2AR-V229C (Homo sapiens, UniProt P29274, V229C); test: 25Mg NMR line width binding isotherm and Ca2+ competition; set-up: alpha-factor secretion leader (Fα-Factor) (N); Flag (N); TEV site (N); His10 (H10) (C); made in house; host or cells: Pichia pastoris SMD 1163
T1 sequence (P29274 1-316 V229C limits assumed): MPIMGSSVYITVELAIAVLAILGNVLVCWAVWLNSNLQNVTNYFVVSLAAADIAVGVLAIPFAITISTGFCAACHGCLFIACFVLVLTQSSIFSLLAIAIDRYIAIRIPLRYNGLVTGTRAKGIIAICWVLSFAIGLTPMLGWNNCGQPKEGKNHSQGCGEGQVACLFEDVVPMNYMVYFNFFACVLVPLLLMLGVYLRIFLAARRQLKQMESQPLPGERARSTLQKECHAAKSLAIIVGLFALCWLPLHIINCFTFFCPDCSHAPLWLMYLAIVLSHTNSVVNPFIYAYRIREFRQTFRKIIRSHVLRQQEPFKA
Protocol: The experiment was performed on an Agilent DD2-600 NMR, equipped with a 10 mm low gamma direct detect probe and low frequency pre-amp. The experimental parameters used were as follows: 20 °C, a Larmor frequency of 36.72 MHz, a spectral width of 2.5 kHz, 1.1 s acquisition time, 0.5 s relaxation time, a 30 µs 90° excitation pulse, and between 128 and 2048 scans depending on the signal-to-noise ratio. For the Kd determination of Mg^2+ the following protocol was used: A 1 M MgCl2 solution with 10 mM DyCl3 in D2O was used as a reference and was placed in a 5-mm OD tube. A sample of 1.5 mL of the protein solution was placed in a 10-mm OD NMR tube. The reference tube was thoroughly cleaned and inserted into the 10-mm tube and centered with a plastic cap. Titration volumes of 3–37 µL of 4.64 M MgCl2 were added directly to the 10-mm tube which was then gently mixed using a vortex shaker. The sample was allowed to equilibrate in the magnet for 10 min at the set temperature and the sample was then locked, tuned, gradient shimmed and acquired. […] The sample was allowed to equilibrate at the set temperature in the magnet for 10 min and then locked, tuned, gradient shimmed and acquired. The Kd and Ki values were determined, using GraphPad Prism 6 software, by fitting the data to the formula, y = A × x/(Kd + x), where x represents the cation concentration.

[2] = molecular target: T2, BTFMA-labeled A2AR-V229C (Homo sapiens, UniProt P29274, V229C); test: 19F NMR of functional state populations (S1-2, S3, S3'); settings: for effect on active state population: 20 mM cation, saturating NECA and Gαs peptide, 100 mM NaCl; for effect on populations of functional states: apo A2AR in MNG-3 micelles, divalent cations 100–500 mM, KCl with 10 or 100 mM NaCl
T2 construct: alpha-factor secretion leader (Fα-Factor) (N); Flag (N); TEV site (N); His10 (H10) (C); made in house; host or cells: Pichia pastoris SMD 1163
T2 sequence (P29274 1-316 V229C limits assumed): as above
Protocol: Here, spectra are deconvolved into three resonances, referred to as S1−2, S3, and S3′, in keeping with previously published work[1].
NMR samples typically consisted of 250 μL volumes of 25–200 μM A2AR-V229C in 50 mM HEPES buffer (pH 7.4) and 100 mM NaCl, doped with 10% D2O. The receptor was stabilized in 0.1% MNG-3 and 0.02% CHS. All ^19F NMR experiments were performed on a 600 MHz Varian Inova spectrometer using a cryogenic triple resonance probe, with the high frequency channel tunable to either ^1H or ^19F. […] Most spectra were acquired with 10,000–50,000 scans depending on sample concentration. Processing typically involved zero filling, and exponential apodization equivalent to 20 Hz line broadening.

[3] = molecular target: T3, A2AR + Gs (Homo sapiens, UniProt P29274, V229C); test: [3H]NECA binding in A2AR/Gs-infected Sf9 membranes; settings: for effect of cation on specific [3H]NECA binding / EC50: 10 nM [3H]NECA; for effect of cation on specific [3H]NECA binding: increasing cation concentration; for effect on [3H]NECA high affinity saturation: 2.5 mM cation; for EC50: read-out: half-maximal cation concentration for enhancement of [3H]NECA binding, 100 mM NaCl
T3 construct: Flag (N); TEV site (N); His10 (H10) (C); expressed in transfected cells; host or cells: Sf9 insect cells, baculovirus co-infection (A2AR, Gαs, Gβγ); membranes
T3 sequence (P29274 1-316 V229C limits assumed): as above
T3 sequence (P63092 whole entry partner): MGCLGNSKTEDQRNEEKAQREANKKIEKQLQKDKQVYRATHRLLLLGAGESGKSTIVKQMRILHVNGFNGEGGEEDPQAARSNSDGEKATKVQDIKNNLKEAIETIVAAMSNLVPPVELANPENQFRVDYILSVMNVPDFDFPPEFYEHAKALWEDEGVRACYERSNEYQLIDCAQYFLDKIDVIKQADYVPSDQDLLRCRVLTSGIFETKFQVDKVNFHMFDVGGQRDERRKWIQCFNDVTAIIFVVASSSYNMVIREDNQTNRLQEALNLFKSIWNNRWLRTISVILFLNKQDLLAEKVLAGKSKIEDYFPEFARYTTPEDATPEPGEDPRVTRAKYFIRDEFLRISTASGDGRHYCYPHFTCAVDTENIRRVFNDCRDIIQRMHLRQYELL
T3 sequence (P62873 whole entry partner): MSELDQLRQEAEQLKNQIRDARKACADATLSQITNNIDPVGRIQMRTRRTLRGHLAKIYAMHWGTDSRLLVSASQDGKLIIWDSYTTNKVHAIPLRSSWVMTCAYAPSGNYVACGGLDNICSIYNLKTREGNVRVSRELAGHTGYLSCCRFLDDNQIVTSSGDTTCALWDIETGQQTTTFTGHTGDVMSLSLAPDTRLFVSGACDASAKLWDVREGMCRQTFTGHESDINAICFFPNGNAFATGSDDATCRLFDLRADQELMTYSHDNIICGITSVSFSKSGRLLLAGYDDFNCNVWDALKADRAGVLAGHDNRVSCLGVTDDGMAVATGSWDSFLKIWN
T3 sequence (P59768 2-68 partner limits assumed): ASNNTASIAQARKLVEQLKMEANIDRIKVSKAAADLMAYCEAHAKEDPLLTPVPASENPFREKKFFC
Source text: The above ^19F NMR observations are further recapitulated in radioligand binding assays in Sf9 cell membranes in which the identical A2AR construct was co-expressed with the heterotrimeric stimulatory G protein, Gαsβγ.
Error bars for radioligand binding assays are defined based on three replicates

[4] = molecular target: T1, apo A2AR-V229C; test: 23Na NMR binding isotherm (line width / chemical shift)
Protocol: Relaxation dispersions associated with ^23Na CPMG experiments, shown in Fig. 2e, provide an additional measure of cation binding and exchange dynamics.
The experiments were performed on a 600 MHz Varian VNMRS spectrometer using a room temperature XH broadband probe (X-nucleus on the inner coil). […] An external ^23Na reference was prepared by mixing 50 mM NaCl and 50 mM TmCl3 in equal volumes prior to loading into the coaxial insert. […] Information regarding binding can be reliably obtained by observing the shift of the free peak and line broadening associated with fast exchange between “free” and “bound” states.

| effect of cation on specific [3H]NECA binding [3] | Structure (SMILES) | effect on active state population [2] | effect on populations of functional states [2] | also measured |
| --- | --- | --- | --- | --- |
| significantly enhance | [Ca+2].[Cl-].[Cl-] [Ca^2+, CaCl2] | detectable increase in the proportion of active states | shift the equilibrium of apo A2AR toward the active states | Ki ([1]; 50 mM 25Mg2+, increasing CaCl2, 50 µM apo-A2AR-V229C, read-out: Ki of Ca2+ displacement of Mg2+): 98 ± 41 mM; effect on [3H]NECA high affinity saturation [3]: enhance maximal specific [^3H]NECA binding and affinity (Kd); EC50 [3]: 0.35 to 0.4 mM; EC50 ([3]; listed as Ca2+): 0.35 mM |
| no positive allosteric effects | [Fe+2] [Fe^2+] | did not |  |  |
|  | NC(N)=NC(=O)c1nc(Cl)c(N2CCCCCC2)nc1N [HMA, 5-(N,N-hexamethylene)amiloride, reference compound] |  |  | competition with sodium in 23Na NMR binding isotherm ([4]; 100 mM NaCl, stoichiometric equivalents of HMA): compete with sodium |
|  | [Cl-].[K+] [KCl] |  | no significant change |  |
| significantly enhance | [Cl-].[Cl-].[Mg+2] [Mg^2+, MgCl2] | detectable increase in the proportion of active states; also recorded: obvious increase in the active S3′ state population | shift the equilibrium of apo A2AR toward the active states | Kd ([1]; 50 µM apo-A2AR-V229C, 100 mM Na+, N=1, fitting error, read-out: dissociation constant Kd of MgCl2): 60 ± 15 mM; effect on [3H]NECA high affinity saturation [3]: enhance maximal specific [^3H]NECA binding and affinity (Kd); EC50 [3]: 0.35 to 0.4 mM; EC50 ([3]; listed as Mg2+): 0.35 mM |
|  | [Cl-].[Na+] [sodium, NaCl] |  | shifts the equilibrium toward the inactive ensemble | Kd ([4]; read-out: dissociation constant Kd of sodium, apo A2AR-V229C 50 μM, line width-based isotherm, 10–1000 mM NaCl): 60 mM and ~60 mM |

| Structure (SMILES) | effect of cation on specific [3H]NECA binding [3] | effect on active state population [2] | effect on populations of functional states [2] | also measured |
| --- | --- | --- | --- | --- |
| [Cl-].[Cl-].[Zn+2] [Zn^2+, ZnCl2] | reduce high affinity binding; also recorded: reduced binding; also recorded: no positive allosteric effects |  |  |  |
